In ChEMBL document CHEMBL4602656, “Synthesis and evaluation of 4-(1,3,4-oxadiazol-2-yl)-benzenesulfonamides as potent carbonic anhydrase inhibitors” (Bioorg Med Chem Lett, 2020):
Active and inactive are the calls of the source. The rule behind the calls is not given here.

What was measured:
Mus musculus = assay: Anti-hypoxia in mouse assessed as increase in mouse survival at 400 mg/kg, po administered for 3 days and observed upto day 3 after dosing of 1.5 hrs; format: functional, organism-based
HEK-293T = assay: Cytotoxicity against human HEK293T cells assessed as reduction in cell viability at 5 to 200 uM incubated for 48 hrs by MTS assay; format: cell-based
[1] = Solubility of compound; format: physicochemical

SMILES | Activity (Mus musculus) | Activity (HEK-293T) | solubility [1]
CC(=O)Nc1nnc(S(N)(=O)=O)s1 [ACETAZOLAMIDE] | Active | Non-Toxic | 
CN(C)c1ccc(-c2nnc(-c3ccc(S(N)(=O)=O)cc3)o2)cc1.CS(=O)(=O)O | Active | Non-Toxic | 
Cc1ccc(-c2nnc(-c3ccc(S(N)(=O)=O)cc3)o2)c(C)c1 |  | Non-Toxic | Insoluble
NS(=O)(=O)c1ccc(-c2nnc(-c3cccc(Cl)c3Cl)o2)cc1 |  | Non-Toxic | Insoluble
